Target: T1, hAhR (Homo sapiens, UniProt P35869)
T1 construct: Stably integrated DRE-luciferase cell lines were generated by transducing the both cell lines with Cignal XRE luciferase reporter (Qiagen) lentiviral particles; endogenous in cells
T1 sequence (P35869 11-848): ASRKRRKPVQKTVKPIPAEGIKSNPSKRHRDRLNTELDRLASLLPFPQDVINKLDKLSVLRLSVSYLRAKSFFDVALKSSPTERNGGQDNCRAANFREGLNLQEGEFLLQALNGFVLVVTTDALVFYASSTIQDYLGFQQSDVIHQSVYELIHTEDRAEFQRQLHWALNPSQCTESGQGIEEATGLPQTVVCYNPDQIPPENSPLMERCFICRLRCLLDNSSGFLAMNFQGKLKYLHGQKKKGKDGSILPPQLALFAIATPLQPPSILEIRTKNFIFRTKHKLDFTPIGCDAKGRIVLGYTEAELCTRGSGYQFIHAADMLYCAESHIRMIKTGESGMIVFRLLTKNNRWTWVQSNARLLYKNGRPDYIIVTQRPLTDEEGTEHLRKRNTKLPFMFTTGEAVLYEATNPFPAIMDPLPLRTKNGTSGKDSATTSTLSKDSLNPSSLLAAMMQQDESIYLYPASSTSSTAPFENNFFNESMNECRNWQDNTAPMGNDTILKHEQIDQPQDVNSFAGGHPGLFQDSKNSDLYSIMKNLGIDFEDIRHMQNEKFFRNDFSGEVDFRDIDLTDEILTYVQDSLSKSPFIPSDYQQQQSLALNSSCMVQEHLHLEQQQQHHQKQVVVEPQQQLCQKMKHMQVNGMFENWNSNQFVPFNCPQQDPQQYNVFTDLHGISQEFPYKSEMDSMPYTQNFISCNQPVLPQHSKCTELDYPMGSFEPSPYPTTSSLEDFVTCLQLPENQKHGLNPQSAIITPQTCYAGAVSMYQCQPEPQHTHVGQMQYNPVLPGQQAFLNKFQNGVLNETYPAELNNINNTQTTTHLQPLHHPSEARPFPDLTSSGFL
Experiment: AhR DRE-luciferase reporter transcriptional assay, antagonist mode (TCDD-induced)
Assay type: cell-based
Conditions: HEPG2 DRE-Luc cells, 3 nM TCDD, 24 hour incubation, relative IC50
Outline: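 HepG2 cells carrying a stably integrated DRE-luciferase reporter, in OptiMEM with 0.5% FBS; semi-log compound doses added with 3 nM TCDD, 24 h incubation, firefly luciferase read-out. Percent maximal activity normalised between vehicle ± TCDD; relative IC50 taken as half-reduction between curve plateaus.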

Compound	IC50 [nM]
Cc1cc(-c2ncc3nc(C(F)(F)F)cc(C)c3n2)ccc1N(C)C(=O)c1ccnn1CCO [Example 173, 1-(2-hydroxyethyl)-N-methyl-N-(2-methyl-4-(8-methyl-6-(trifluoromethyl)-pyrido[3,2-d]pyrimidin-2-yl)phenyl)-1H-pyrazole-5-carboxamide]	< 200
Cc1cc(-c2ncc3nc(C(F)(F)F)cc(C)c3n2)ccc1NC(=O)c1ccnc(C(N)=O)c1 [Example 166, N4-(2-methyl-4-(8-methyl-6-(trifluoromethyl)pyrido[3,2-d]pyrimidin-2-yl)phenyl)pyridine-2,4-dicarboxamide]	< 200
Cc1cc(-c2ncc3ccn(CC(F)(F)F)c3n2)ccc1NC(=O)c1ccnn1C [Example 091, 1-Methyl-N-(2-methyl-4-(7-(2,2,2-trifluoroethyl)-7H-pyrrolo[2,3-d]pyrimidin-2-yl)phenyl)-1H-pyrazole-5-carboxamide]	200 to 500
Cc1cc(-c2ccc3cc(C(F)(F)F)cc(C)c3n2)ccc1N(C)C(=O)c1ccnn1C [Example 202, N,1-dimethyl-N-(2-methyl-4-(8-methyl-6-(trifluoromethyl)quinolin-2-yl)phenyl)-1H-pyrazole-5-carboxamide]	< 200
